41 compounds from ChEMBL document CHEMBL4602735, “Discovery of (1H-Pyrazolo[3,4-c]pyridin-5-yl)sulfonamide Analogues as Hepatitis B Virus Capsid Assembly Modulators by Conformation Constraint” (J Med Chem, 2020) can be followed below.

One series deals with Hepatitis B virus. The series can be described thus: Antiviral activity against HBV infected in human HepAD38 cells assessed as reduction in viral DNA levels incubated for 6 days by PCR analysis. In kind it is functional, organism-based. The note with it: HePAD38, 144 h.
The nature of series [1]: Cytotoxicity in human HepAD38 cells assessed as induction of cell killing. The series is classed as cell-based.
A short description of series [2]: Selectivity index, ratio of CC50 for cytotoxicity in human HepAD38 cells assessed as induction of cell killing to EC50 for antiviral activity against HBV infected in human HepAD38 cells assessed as reduction in viral DNA levels incubated for 6 days by PCR analysis. The series is classed as toxicity, cell-based. The note with it: read-out: Ratio CC50/EC50.

Take `O=S(=O)(c1cc2c(Nc3cc(F)c(F)c(F)c3)nn(C3CC3)c2cn1)N1CCC(O)CC1`: the EC50 with Hepatitis B virus came to 0.24 µM. For the same compound, in series [1], the half-maximal cytotoxic concentration (CC50) is above 100 µM. Further, in series [2], the selectivity ratio at 144 h was above 417.
The like results for `Cc1cc(Nc2nn(CCF)c3ccc(S(=O)(=O)N4CCOCC4)cc23)ccc1F` were, in that order, 0.41 µM, above 100 µM and above 244.
For `CCn1nc(Nc2ccc(F)cc2)c2cc(S(=O)(=O)N3CCC(O)CC3)ccc21`, the EC50 in the series on Hepatitis B virus stood at 1.26 µM. Further, in series [1], the CC50 is above 100 µM. The selectivity ratio at 144 h in series [2] was above 79.
Take `O=S(=O)(c1ccc2c(n1)c(Nc1cc(F)c(F)c(F)c1)nn2C1CC1)N1CCC(O)CC1`: in the series with Hepatitis B virus, the EC50 was above 5 µM.
Turning to `Cc1cc(Nc2n[nH]c3ccc(S(=O)(=O)N4CCOCC4)cc23)ccc1F`, the EC50 in the series on Hepatitis B virus was 0.29 µM. The CC50 in series [1] is 50 µM. In addition, in series [2], the selectivity ratio at 144 h came out at 172.
The matching figures for `O=S(=O)(c1ccc2c(c1)c(Nc1ccc(F)cc1)nn2C1CC1)N1CCC(CO)CC1`: 1.1 µM, 24.8 µM and 23.
Take `O=S(=O)(c1ccc2c(c1)c(NCc1ccccc1)nn2C1CC1)N1CCC(O)CC1`: the EC50 in the series on Hepatitis B virus was above 10 µM.
Take `O=S(=O)(c1ccc2c(c1)c(NC1CCCC1)nn2C1CC1)N1CCC(O)CC1`: the EC50 in the series with Hepatitis B virus was above 10 µM. In addition, in series [1], the cytotoxic concentration (CC50) was above 100 µM.
The like results for `Cc1cc(Nc2nn(C(F)F)c3ccc(S(=O)(=O)N4CCOCC4)cc23)ccc1F` were, in that order, above 10 µM and above 100 µM.
On to `O=S(=O)(c1ccc2c(c1)c(Nc1ccc(F)cc1Cl)nn2C1CC1)N1CCC(O)CC1`, for which the EC50 with Hepatitis B virus amounted to 4 µM. Moreover, the CC50 in series [1] was above 100 µM. Also, the selectivity ratio at 144 h in series [2] was above 25.
The like results for `O=S(=O)(c1ccc2c(c1)c(Nc1ccc(F)c(Cl)c1)nn2C1CC1)N1CCC(O)CC1` were, in that order, 0.19 µM, 18.3 µM and 96.
Regarding `O=S(=O)(c1ccc2c(c1)c(Nc1ccc(F)cn1)nn2C1CC1)N1CCC(O)CC1`, the EC50 with Hepatitis B virus was above 10 µM.
Consider `Cc1cc(Nc2nn(C3CC3)c3cc(F)c(S(=O)(=O)N4CCOCC4)cc23)ccc1F`, for which the EC50 in the series on Hepatitis B virus was found to be 0.21 µM. The CC50 in series [1] is above 100 µM.
For the compound `O=S(=O)(c1ccc2c(c1)c(Nc1ccc(F)c(F)c1)nn2C1CC1)N1CCOCC1`, the EC50 in the series on Hepatitis B virus came out at 0.22 µM. Moreover, the CC50 in series [1] is above 100 µM. In addition, in series [2], the selectivity ratio at 144 h was above 454.
The matching figures for `O=S(=O)(c1cc2c(Nc3ccc(F)c(F)c3)nn(C3CC3)c2cn1)N1CCOCC1`: 0.22 µM, above 100 µM and above 454.
Turning to `O=S(=O)(c1ccc2c(c1)c(NCc1ccc(F)cc1)nn2C1CC1)N1CCC(O)CC1`, the EC50 in the series on Hepatitis B virus was above 10 µM.
Turning to `O=S(=O)(c1ccc2c(c1)c(Nc1ccc(F)c(C(F)F)c1)nn2C1CC1)N1CCOCC1`, the EC50 in the series on Hepatitis B virus turned out to be 0.12 µM. The CC50 in series [1] turned out to be 50 µM. Besides, in series [2], the selectivity ratio at 144 h was determined as 417.
As for `N#Cc1cc(Nc2nn(C3CC3)c3ccc(S(=O)(=O)N4CCC(O)CC4)cc23)ccc1F`, in the series with Hepatitis B virus, the EC50 is above 10 µM.
Take `Cc1cc(Nc2nn(C3CC3)c3ccc(S(=O)(=O)N4C[C@@H]5C[C@H]4CO5)cc23)ccc1F`: the EC50 in the series with Hepatitis B virus amounted to 0.045 µM. Also, the cytotoxic concentration (CC50) in series [1] was 19 µM. Besides, in series [2], the selectivity ratio at 144 h is 422.
Turning to `Cn1nc(Nc2ccc(F)c(Cl)c2)c2cc(S(=O)(=O)N3CCC(O)CC3)ccc21`, the EC50 with Hepatitis B virus came to 1.38 µM. The CC50 in series [1] is above 100 µM. In addition, in series [2], the selectivity ratio at 144 h is above 72.
The like results for `Cc1cc(Nc2nn(C3CC3)c3ccc(S(=O)(=O)N4CCC(O)CC4)cc23)ccc1F` were, in that order, 0.032 µM, 11 µM and 343.
Consider `O=C1CCN(S(=O)(=O)c2ccc3c(c2)c(Nc2ccc(F)cc2)nn3C2CC2)CC1`, for which, in the series with Hepatitis B virus, the EC50 worked out at 0.33 µM. Also, the CC50 in series [1] came to 14.2 µM. Besides, the selectivity ratio at 144 h in series [2] was 43.
On to `O=S(=O)(c1ccc2c(c1)c(Oc1ccc(F)c(Cl)c1)nn2C1CC1)N1CCC(O)CC1`, for which, in the series with Hepatitis B virus, the EC50 was above 10 µM. Besides, the CC50 in series [1] was 75 µM. For the same compound, in series [2], the selectivity ratio at 144 h is below 7.5.
The matching figures for `O=S(=O)(c1cc2c(Nc3cc(F)c(F)c(F)c3)nn(C3CC3)c2cc1F)N1CCC(O)CC1`: 0.13 µM, above 100 µM and above 769.
In the case of `Cc1cc(Nc2nn(C3CC3)c3ccc(S(=O)(=O)N4CCC(O)CC4)cc23)ccn1`, in the series on Hepatitis B virus, the EC50 was above 20 µM. The CC50 in series [1] was determined as 46.6 µM. For the same compound, the selectivity ratio at 144 h in series [2] is below 23.
As for `O=S(=O)(c1ccc2c(c1)c(Nc1ccc(F)cc1)nn2C1CC1)N1CCCC(O)C1` (configuration not stated), the EC50 in the series on Hepatitis B virus was found to be 0.25 µM. For the same compound, the CC50 in series [1] is 19.1 µM. Also, in series [2], the selectivity ratio at 144 h came to 76.2.
The like results for `O=S(=O)(c1ccc2c(c1)c(Nc1ccc(F)c(C(F)(F)F)c1)nn2C1CC1)N1CCOCC1` were, in that order, 0.29 µM, 8.42 µM and 29.
The like results for `O=S(=O)(c1cc(F)c2c(c1)c(Nc1cc(F)c(F)c(F)c1)nn2C1CC1)N1CCC(O)CC1` were, in that order, 2 µM, above 100 µM and above 50.
With `O=S(=O)(c1cnc2c(c1)c(Nc1cc(F)c(F)c(F)c1)nn2C1CC1)N1CCC(O)CC1`, in the series on Hepatitis B virus, the EC50 is above 20 µM.
The same measure, in the same setting: the value for `Cc1ccc(Nc2nn(C3CC3)c3ccc(S(=O)(=O)N4CCC(O)CC4)cc23)cc1` was 0.22 to 5 µM.
On to `O=S(=O)(c1cc2c(Nc3ccc(F)c(F)c3)nn(C3CC3)c2cn1)N1CCC(O)CC1`, for which the 50% effective concentration (EC50) with Hepatitis B virus came out at 0.25 µM. Further, the CC50 in series [1] is above 100 µM. Besides, in series [2], the selectivity ratio at 144 h is above 400.
On to `CC(C)n1nc(Nc2ccc(F)cc2)c2cc(S(=O)(=O)N3CCC(O)CC3)ccc21`, for which, in the series on Hepatitis B virus, the EC50 was above 10 µM.
`O=S(=O)(c1cc2c(Nc3ccc(F)c(C(F)F)c3)nn(C3CC3)c2cn1)N1CCOCC1`: the EC50 in the series with Hepatitis B virus was 0.23 µM. For the same compound, the CC50 in series [1] is above 100 µM. Also, the selectivity ratio at 144 h in series [2] was above 435.
Turning to `O=S(=O)(c1ccc2c(c1)c(Nc1ccc(F)c(C(F)F)c1)nn2C1CC1)N1CCC(O)CC1`, in the series on Hepatitis B virus, the EC50 amounted to 0.29 µM. For the same compound, the CC50 in series [1] is 13.6 µM. In series [2], the selectivity ratio at 144 h was 47.
For the compound `O=S(=O)(c1cc2c(Nc3ccc(F)c(C(F)(F)F)c3)nn(C3CC3)c2cn1)N1CCOCC1`, the EC50 in the series with Hepatitis B virus stood at 0.34 µM. In addition, the CC50 in series [1] is above 100 µM. The selectivity ratio at 144 h in series [2] is above 294.
As to `O=S(=O)(c1ccc2c(c1)c(Nc1ccc(F)cc1)nn2C1COC1)N1CCC(O)CC1`, the EC50 in the series on Hepatitis B virus was above 10 µM.
Take `O=S(=O)(c1ccc2c(c1)c(Nc1ccc(F)c(C(F)(F)F)c1)nn2C1CC1)N1CCC(O)CC1`: in the series on Hepatitis B virus, the EC50 was determined as 6 µM. In addition, the CC50 in series [1] turned out to be 7.52 µM. In addition, the selectivity ratio at 144 h in series [2] was found to be 1.3.
`CN(c1ccc(F)c(Cl)c1)c1nn(C2CC2)c2ccc(S(=O)(=O)N3CCC(O)CC3)cc12`: the EC50 in the series with Hepatitis B virus is above 10 µM. The CC50 in series [1] is above 100 µM.
Take `Cc1cc(Nc2nn(C3CC3)c3ccc(S(=O)(=O)N4CCC(O)CC4)cc23)ncc1F`: the EC50 in the series with Hepatitis B virus was above 10 µM.
Take `O=C(O)C1CCN(S(=O)(=O)c2ccc3c(c2)c(Nc2ccc(F)cc2)nn3C2CC2)C1` (configuration not stated): the EC50 in the series with Hepatitis B virus is above 10 µM. Besides, the CC50 in series [1] was above 100 µM.
The matching figures for `O=S(=O)(c1ccc2c(c(Nc3cc(F)c(F)c(F)c3)nn2C2CC2)c1F)N1CCC(O)CC1`: above 20 µM and above 100 µM.

By EC50 is commonly meant the concentration needed to bring the measured effect to its halfway point. Usually CC50 stands for the concentration that lowers cell viability or growth by half.
